For data set [1], the system named is glucose uptake by tps1Δ yeast cells. Kind of data set: Zero-trans uptake of radioactive glucose in tps1Δ yeast cells. To be noted: for IC50: Saccharomyces cerevisiae. Format: cell-based, S. cerevisiae. Here is the method:
Zero-trans uptake of radioactively labeled [U-^14C]glucose, [U-^14C]fructose or [U-^14C]galactose by S. cerevisiae cells was determined in accordance with previous studies ([45], [75]). Cells were grown on different carbon sources depending on the experiment. For measuring glucose uptake activity in the tps1Δ and tps1Δ hxtΔ strains, cells were grown on YP medium containing 325 mM glycerol (measurement of 10 s). Typically, for compound characterization and kinetic studies in wild type and tps1Δ strains, cells were (pre)grown on Complete Synthetic medium supplemented with 110 mM galactose (measurement of 10 s). In the experiments on the influence of hexokinase activity on the sugar uptake rate, the measurement duration was shortened to 5 s and cells were always grown on YP medium containing 325 mM glycerol and 430 mM ethanol. After harvesting, cells were washed twice with ice-cold 25 mM MES-buffer pH 6, and resuspended in their respective medium without sugar to a final concentration of 45 mg (wet weight)/mL. The amount of added tracer was estimated to give a response close to at least 1000 counts per min in order to adequately counter background noise. Cells were first preincubated for 10 min at 30°C with the compound to acclimate the cells to the temperature and to allow adequate interaction with the compound prior to uptake. Next, hexose sugar was mixed with the cell suspension, which was then incubated at 30°C for 5 or 10 s, depending on the experiment, after which the cells were rapidly filtered over a glass microfiber filter (Whatman GF/C) and washed three times with ice-cold dH2O. The loaded filter was transferred to a scintillation vial containing 3 mL liquid scintillation cocktail (Ultima-Flo M, Perkin Elmer) and counted using the Hidex 300 SL. Three blank measurements per strain were typically included to account for background signal, for which the cells were first quenched before adding the radioactive label.

The test system of the next data set is female NMRI-nu mice. Kind of data set: In vivo toxicity and tolerability in mice. To be noted: for abnormalities / toxic effects in liver and other organs at autopsy: daily i.p., toxic effects at 20 mg/kg WBC-15C and at 20 and 10 mg/kg WBC-11C, not at lower doses; for loss in body weight: daily intraperitoneal injection, 5, 10 and 20 mg/kg; for AST/ALT ratio vs vehicle: sera after 20 days, 5, 10, 20 mg/kg daily i.p.; for blood glucose level vs vehicle: sera post-mortem after 20 days, 5, 10, 20 mg/kg daily i.p. The method, then:
Warbicin ® in vivo toxicity and tolerability was examined by subjecting female NMRI-nu mice (12 weeks old) to daily intraperitoneal injection of either WBC-A, WBC-15C, WBC-4C or WBC-11C. Compounds were dosed at either 5 mg/kg, 10 mg/kg or 20 mg/kg over a period of 20 days. Three mice were used per condition. To evaluate toxicity, change in body weight was registered daily. As a humane endpoint, mice that lost more than 20% of their original body weight were prematurely sacrificed. In addition, liver function was examined by measuring the ratio of the AST to ALT enzyme activities (AbCam ab105135, ab105134) in sera samples collected at the end of the experiment. Furthermore, the blood glucose level in mice sera was determined using the colorimetric GOD-PAP method. Due to their considerable hydrophobicity, the compounds were dissolved in a sterilized 1xPBS, 5% DMSO and 5% Tween-80 solution until a homogenous suspension was obtained that could be administered in a reproducible way.

Data set [2] has as its system A549 lung adenocarcinoma cells. Kind of data set: Proliferation of A549 lung adenocarcinoma cells. It is filed as cell-based, human. To be noted: for relative potency in reducing maximal growth rate of A549 cells: 1 mM glucose, 6.25-50 µM.
For data set [3], the system named is 2-deoxyglucose uptake in A549 lung adenocarcinoma cells. In words: 2-deoxyglucose uptake in A549 lung adenocarcinoma cells. It is filed as cell-based, human. Here is the method:
Zero-trans glucose uptake in A549 cells was approximated by measuring the uptake of [1,2-^3H]2-deoxyglucose. For this purpose, A549 cells were pregrown in RPMI medium containing 10 mM glucose in a 24-well plate to a cell density of around 100,000 cells/well. Prior to adding radioactive label, cells were gently washed twice in Krebs-Ringer-HEPES buffer (50 mM HEPES pH 7.4, 137 mM NaCl, 4.7 mM KCl, […], 1.3 mM MgSO4 and 0.1% w/v BSA) at 30°C to remove any residual sugar. RPMI medium without sugar containing the compound intended for treatment, was added to the cells for 15 min at 37°C to allow adequate interaction of the cells with the compound. The uptake measurement was initiated by adding an equal volume of medium containing radiolabeled 2DG. After 3 - 4 min incubation at 37°C, medium was aspirated and cells were gently washed three times with ice-cold Krebs-Ringer-HEPES buffer. Cells were lysed by adding 200 µL of ice-cold 0.1 M NaOH solution and incubating the plate for 10 min at 37°C. Cell lysates were transferred to scintillation vials for subsequent scintillation counting. For blank measurements, cells were incubated with 50 µM Cytochalasin B prior to the uptake measurement.

Another data set concerns yeast tps1Δ strain. In words: Growth (rescue) of the yeast tps1Δ strain on galactose with or without glucose. It is filed as cell-based, S. cerevisiae.

Usually IC50 stands for the midpoint of a concentration-inhibition curve. Broadly, the Ki is a dissociation constant, usually derived from enzyme kinetics or from competition with a known ligand.

Read-outs that look alike come from different tables or passages of the source.

On to `Cc1nc(SCC(=O)c2ccc3c(c2)NC(=O)CO3)c2c(-c3cccs3)csc2n1` [WBC-11C], for which the 50% inhibitory concentration (IC50) in data set [1] (read-out: IC50 values for 2.5 mM glucose uptake in tps1∆ cells) came out at 44 µM. Besides, the “abnormalities / toxic effects in liver and other organs at autopsy” value with female NMRI-nu mice (20 days) was “toxic effects were seen in the liver and other organs”. In addition, the “adipose tissue at autopsy” value in the data set on female NMRI-nu mice (nude mice, daily i.p., 5, 10 and 20 mg/kg, 20 days, visual inspection vs vehicle) was “adipose tissue was also observed in between the intestines”. The “loss in body weight” value in the data set with female NMRI-nu mice (nude mice, 20 days) is listed as “small transient drop”. Also, in the data set with female NMRI-nu mice, the “AST/ALT ratio vs vehicle” value is “No significant difference” and the “blood glucose level vs vehicle” value was “No significant difference”. Besides, the “Selected from primary screen for growth inhibition of A549 cells at 50 µM” value in data set [2] (RPMI 1 mM glucose) is listed as “Yes”. Besides, the “relative potency in reducing maximal growth rate of A549 cells” value in data set [2] is recorded as “most”. In addition, the “Selected for having an IC50 ratio (10 mM glucose : 1 mM glucose) of A549 growth higher than WBC-A” value in data set [2] (ratio of IC50 on 10 mM and 1 mM glucose, compared to WBC-A) was “Higher IC50 ratio and confirmed”. Moreover, the “type of inhibition of 2-deoxyglucose uptake (Lineweaver-Burk)” value in data set [3] is “uncompetitive”. Further, in the data set on yeast tps1Δ strain, the “Rescue of the tps1∆ strain on 2.5 mM glucose at 100 µM” value is reported as “Yes” and the “Minimal rescue concentration for growth of tps1∆ cells on 2.5 mM glucose” value is listed as 50 µM.
Turning to `Cc1nc(Sc2nnc3n2CCCCC3)c2c(-c3cccs3)csc2n1` [WBC-A], the 50% inhibitory concentration (IC50) in data set [1] (read-out: IC50 for inhibition of 2.5 mM glucose uptake) turned out to be 20.8 µM. The “type of inhibition of glucose uptake” value in data set [1] (tps1Δ yeast cells) was “mixed type of inhibition”. Besides, the Ki in data set [1] (tps1Δ yeast cells, read-out: Ki (Dixon plot) for glucose uptake) stood at 8.35 µM. For the same molecule, the “abnormalities / toxic effects in liver and other organs at autopsy” value in the data set with female NMRI-nu mice (20 days) is recorded as “No other abnormalities”. Also, the “loss in body weight” value with female NMRI-nu mice (nude mice, 20 days) is given as “no significant loss in body weight”. Moreover, in the data set with female NMRI-nu mice, the “AST/ALT ratio vs vehicle” value is “No significant difference” and the “blood glucose level vs vehicle” value is reported as “No significant difference”. Also, in data set [2] (RPMI 1 mM glucose), the “Selected from primary screen for growth inhibition of A549 cells at 50 µM” value is recorded as “Yes”. In data set [2], the “relative potency in reducing maximal growth rate of A549 cells” value is “intermediate potency”. Further, in data set [2] (RPMI 1 mM glucose, 12.5 µM), the “inhibition of A549 growth” value is reported as “pronounced inhibition”. In data set [2] (RPMI 1 mM glucose, concentrations higher than 12.5 µM (25, 50 µM)), the “inhibition of A549 growth” value is recorded as “completely blocked continued cancer cell proliferation”. Moreover, the “inhibition of A549 growth” value in data set [2] (RPMI 1 mM or 5 mM glucose, 12.5-50 µM, more pronounced for 1 mM) is on record as “dose-dependent inhibition of growth”. Also, the “type of inhibition of 2-deoxyglucose uptake (Lineweaver-Burk)” value in data set [3] is reported as “noncompetitive type of inhibition”. In addition, in data set [3] (Dixon plot (Ki = K'i) or Cornish-Bowden plot (WBC-11C)), the “K'i for 2-deoxyglucose uptake” value came to 52.78 µM. The Ki in data set [3] (read-out: Ki for 2-deoxyglucose uptake (Dixon plot)) came out at 52.8 µM. In addition, in the data set on yeast tps1Δ strain (100 μM), the “rescue of growth on galactose in the presence of 5 mM glucose” value was “rescued growth” and the “restoration of growth in the presence of 7.5 mM glucose” value is reported as “not able to restore growth”. For the same molecule, in the data set with yeast tps1Δ strain, the “Rescue of the tps1∆ strain on 2.5 mM glucose at 100 µM” value is “Yes” and the “Minimal rescue concentration for growth of tps1∆ cells on 2.5 mM glucose” value worked out at 25 µM.
